Measurements reported in ChEMBL document CHEMBL3045684, “Compatibility of traditional and novel acaricides with bumblebees (Bombus terrestris): a first laboratory assessment of toxicity and sublethal effects” (Pest Manag Sci, 2010).
Calls of active or inactive are those of the source. No cut-off for these calls is given here.

How the values were obtained:
Bombus terrestris [1] = experiment: Contact toxicity against worker Bombus terrestris (bumblebee) assessed as reduction in reproduction at 200 mg a.i./l applied on the dorsal thorax for 11 weeks measured once a week for 11 weeks relative to control; format: functional, organism-based
Bombus terrestris [2] = experiment: Contact toxicity against worker Bombus terrestris (bumblebee) assessed as mortality at 200 mg a.i./l applied on the dorsal thorax for 11 weeks measured everyday for 3 days followed by once a week for 11 weeks; format: functional
Bombus terrestris [3] = experiment: Toxicity against worker Bombus terrestris (bumblebee) assessed as mortality at 200 mg a.i./l, po administered through pollen for 11 weeks measured everyday for 3 days followed by once a week for 11 weeks; format: functional
Bombus terrestris [4] = experiment: Toxicity against worker Bombus terrestris (bumblebee) assessed as mortality at 200 mg a.i./l, po administered through sugar water for 11 weeks measured everyday for 3 days followed by once a week for 11 weeks; format: functional
Bombus terrestris [5] = experiment: Toxicity against worker Bombus terrestris (bumblebee) assessed as reduction in reproduction at 200 mg a.i./l, po administered through pollen for 11 weeks measured once a week for 11 weeks; format: functional; set-up: scale not given: the % may be the effect or the level left
Apis mellifera = experiment: Contact toxicity against Apis mellifera (honey bee) assessed per bee; format: functional
Bombus terrestris [6] = experiment: Contact toxicity against Bombus terrestris (bumblebee) assessed per bee; format: functional
Bombus terrestris [7] = experiment: Contact toxicity against worker Bombus terrestris (bumblebee) assessed as mortality at 10 mg a.i./l applied on the dorsal thorax for 11 weeks measured everyday for 3 days followed by once a week for 11 weeks; format: functional
Bombus terrestris [8] = experiment: Contact toxicity against worker Bombus terrestris (bumblebee) assessed as reduction in reproduction at 10 mg a.i./l applied on the dorsal thorax for 11 weeks measured once a week for 11 weeks relative to control; format: functional, organism-based
Bombus terrestris [9] = experiment: Toxicity against worker Bombus terrestris (bumblebee) assessed as mortality at 10 mg a.i./l, po administered through sugar water for 11 weeks measured everyday for 3 days followed by once a week for 11 weeks; format: functional
Bombus terrestris [10] = experiment: Toxicity against worker Bombus terrestris (bumblebee) assessed as mortality at 10 mg a.i./l, po administered through pollen for 11 weeks measured everyday for 3 days followed by once a week for 11 weeks; format: functional, organism-based
Bombus terrestris [11] = experiment: Contact toxicity against worker Bombus terrestris (bumblebee) assessed as mortality at 75 mg a.i./l applied on the dorsal thorax for 11 weeks measured everyday for 3 days followed by once a week for 11 weeks; format: functional
Bombus terrestris [12] = experiment: Contact toxicity against worker Bombus terrestris (bumblebee) assessed as reduction in reproduction at 75 mg a.i./l applied on the dorsal thorax for 11 weeks measured once a week for 11 weeks relative to control; format: functional, organism-based
Bombus terrestris [13] = experiment: Toxicity against worker Bombus terrestris (bumblebee) assessed as mortality at 75 mg a.i./l, po administered through sugar water measured after 9 to 11 weeks; format: functional, organism-based
Bombus terrestris [14] = experiment: Toxicity against worker Bombus terrestris (bumblebee) assessed as mortality at 75 mg a.i./l, po administered through sugar water for 11 weeks measured everyday for 3 days followed by once a week for 11 weeks; format: functional
Bombus terrestris [15] = experiment: Toxicity against worker Bombus terrestris (bumblebee) assessed as reduction in reproduction at 75 mg a.i./l, po administered through sugar water for 11 weeks measured once a week for 11 weeks relative to control; format: functional, organism-based
Bombus terrestris [16] = experiment: Toxicity against worker Bombus terrestris (bumblebee) assessed as reduction in reproduction at 75 mg a.i./l, po administered through pollen for 11 weeks measured once a week for 11 weeks; format: functional, organism-based
Bombus terrestris [17] = experiment: Toxicity against worker Bombus terrestris (bumblebee) assessed as mortality at 75 mg a.i./l, po administered through pollen for 11 weeks measured everyday for 3 days followed by once a week for 11 weeks; format: functional
Bombus terrestris [18] = experiment: Contact toxicity against worker Bombus terrestris (bumblebee) assessed as mortality at 75 mg a.i./l applied on the dorsal thorax measured up to 1 week; format: functional, organism-based
Bombus terrestris [19] = experiment: Toxicity against worker Bombus terrestris (bumblebee) assessed as reduction in reproduction at 96 mg a.i./l, po administered through sugar water for 11 weeks measured once a week for 11 weeks relative to control; format: functional, organism-based
Bombus terrestris [20] = experiment: Contact toxicity against worker Bombus terrestris (bumblebee) assessed as reduction in reproduction at 96 mg a.i./l applied on the dorsal thorax for 11 weeks measured once a week for 11 weeks relative to control; format: functional, organism-based
Bombus terrestris [21] = experiment: Toxicity against worker Bombus terrestris (bumblebee) assessed as mortality at 96 mg a.i./l, po administered through pollen for 11 weeks measured everyday for 3 days followed by once a week for 11 weeks; format: functional, organism-based
Bombus terrestris [22] = experiment: Toxicity against worker Bombus terrestris (bumblebee) assessed as mortality at 96 mg a.i./l, po administered through sugar water for 11 weeks measured everyday for 3 days followed by once a week for 11 weeks; format: functional
Bombus terrestris [23] = experiment: Toxicity against worker Bombus terrestris (bumblebee) assessed as reduction in reproduction at 96 mg a.i./l, po administered through pollen for 11 weeks measured once a week for 11 weeks; format: functional, organism-based
Bombus terrestris [24] = experiment: Contact toxicity against worker Bombus terrestris (bumblebee) assessed as mortality at 96 mg a.i./l applied on the dorsal thorax for 11 weeks measured everyday for 3 days followed by once a week for 11 weeks; format: functional
Bombus terrestris [25] = experiment: Contact toxicity against worker Bombus terrestris (bumblebee) assessed as reduction in reproduction at 0.8 mg a.i./l applied on the dorsal thorax for 11 weeks measured once a week for 11 weeks relative to control; format: functional, organism-based
Bombus terrestris [26] = experiment: Toxicity against worker Bombus terrestris (bumblebee) assessed as mortality at 0.8 mg a.i./l, po administered through sugar water for 11 weeks measured everyday for 3 days followed by once a week for 11 weeks; format: functional
Bombus terrestris [27] = experiment: Toxicity against worker Bombus terrestris (bumblebee) assessed as mortality at 0.8 mg a.i./l, po administered through pollen for 11 weeks measured everyday for 3 days followed by once a week for 11 weeks; format: functional, organism-based
Bombus terrestris [28] = experiment: Toxicity against worker Bombus terrestris (bumblebee) assessed as reduction in reproduction at 0.8 mg a.i./l, po administered through sugar water for 11 weeks measured once a week for 11 weeks relative to control; format: functional, organism-based
Bombus terrestris [29] = experiment: Contact toxicity against worker Bombus terrestris (bumblebee) assessed as mortality at 0.8 mg a.i./l applied on the dorsal thorax for 11 weeks measured everyday for 3 days followed by once a week for 11 weeks; format: functional
Bombus terrestris [30] = experiment: Toxicity against worker Bombus terrestris (bumblebee) assessed as reduction in reproduction at 0.8 mg a.i./l, po administered through pollen for 11 weeks measured once a week for 11 weeks; format: functional, organism-based
Bombus terrestris [31] = experiment: Toxicity against worker Bombus terrestris (bumblebee) assessed as reduction in reproduction at 10 mg a.i./l, po administered through sugar water for 11 weeks measured once a week for 11 weeks relative to control; format: functional, organism-based
Bombus terrestris [32] = experiment: Contact toxicity against worker Bombus terrestris (bumblebee) assessed as reduction in reproduction at 100 mg a.i./l applied on the dorsal thorax for 11 weeks measured once a week for 11 weeks relative to control; format: functional, organism-based
Bombus terrestris [33] = experiment: Toxicity against worker Bombus terrestris (bumblebee) assessed as reduction in reproduction at 10 mg a.i./l, po administered through pollen for 11 weeks measured once a week for 11 weeks; format: functional; set-up: scale not given: the % may be the effect or the level left
Bombus terrestris [34] = experiment: Toxicity against worker Bombus terrestris (bumblebee) assessed as mortality at 100 mg a.i./l, po administered through pollen for 11 weeks measured everyday for 3 days followed by once a week for 11 weeks; format: functional
Bombus terrestris [35] = experiment: Toxicity against worker Bombus terrestris (bumblebee) assessed as reduction in reproduction at 100 mg a.i./l, po administered through pollen for 11 weeks measured once a week for 11 weeks; format: functional; set-up: scale not given: the % may be the effect or the level left
Bombus terrestris [36] = experiment: Toxicity against worker Bombus terrestris (bumblebee) assessed as reduction in reproduction at 200 mg a.i./l, po administered through sugar water for 11 weeks measured once a week for 11 weeks relative to control; format: functional, organism-based
Bombus terrestris [37] = experiment: Contact toxicity against worker Bombus terrestris (bumblebee) assessed as mortality at 100 mg a.i./l applied on the dorsal thorax for 11 weeks measured everyday for 3 days followed by once a week for 11 weeks; format: functional
Bombus terrestris [38] = experiment: Toxicity against worker Bombus terrestris (bumblebee) assessed as reduction in reproduction at 100 mg a.i./l, po administered through sugar water for 11 weeks measured once a week for 11 weeks relative to control; format: functional, organism-based
Bombus terrestris [39] = experiment: Toxicity against worker Bombus terrestris (bumblebee) assessed as mortality at 100 mg a.i./l, po administered through sugar water for 11 weeks measured everyday for 3 days followed by once a week for 11 weeks; format: functional

## CC(C)(C)c1ccc(CCOc2ncnc3ccccc23)cc1 [FENAZAQUIN]
Bombus terrestris [1]
  Activity: inactive
Bombus terrestris [2]
  mortality at 200 µg/mL: < 25%
Bombus terrestris [3]
  mortality at 200 µg/mL: 90%
Bombus terrestris [4]
  mortality at 200 µg/mL: 25%
Bombus terrestris [5]
  Activity: 50%
Apis mellifera
  LD50: <1 µg
Bombus terrestris [6]
  LD50: >100 µg

## C/C1=C\C[C@@H]2C[C@@H](C[C@]3(CC[C@H](C)[C@@H](C)O3)O2)OC(=O)[C@@H]2CC[C@@H](O)[C@H]3OC/C(=C\C=C\[C@H](C)C1)[C@]32O [MILBEMECTIN]
Bombus terrestris [7]
  mortality at 10 µg/mL: < 25%
Bombus terrestris [8]
  Activity: inactive
Bombus terrestris [9]
  mortality at 10 µg/mL: < 25%
Bombus terrestris [10]
  Activity: inactive
Apis mellifera
  LD50: <1 µg
Bombus terrestris [6]
  LD50: >100 µg

## CC(C)(C)c1ccc(CSc2cnn(C(C)(C)C)c(=O)c2Cl)cc1 [PYRIDABEN]
Bombus terrestris [11]
  mortality at 75 µg/mL: 50%
Bombus terrestris [12]
  Activity: inactive
Bombus terrestris [13]
  Activity: Active
Bombus terrestris [14]
  mortality at 75 µg/mL: 95%
Bombus terrestris [15]
  Activity: Active
Bombus terrestris [16]
  Activity: Active
Bombus terrestris [17]
  mortality at 75 µg/mL: 90%
Bombus terrestris [18]
  Activity: Active

## CCC(C)(C)C(=O)OC1=C(c2ccc(Cl)cc2Cl)C(=O)OC12CCCCC2 [SPIRODICLOFEN]
Bombus terrestris [19]
  Activity: Active
Bombus terrestris [20]
  Activity: inactive
Bombus terrestris [21]
  Activity: inactive
Bombus terrestris [22]
  mortality at 96 µg/mL: < 25%
Bombus terrestris [23]
  Activity: Active
Bombus terrestris [24]
  mortality at 96 µg/mL: < 25%

## Cc1cc(C)c(C2=C(OC(=O)CC(C)(C)C)C3(CCCC3)OC2=O)c(C)c1 [SPIROMESIFEN]
Bombus terrestris [25]
  Activity: inactive
Bombus terrestris [26]
  mortality at 0.8 µg/mL: < 25%
Bombus terrestris [27]
  Activity: inactive
Bombus terrestris [28]
  Activity: Active
Bombus terrestris [29]
  mortality at 0.8 µg/mL: < 25%
Bombus terrestris [30]
  Activity: Active

## CCc1nn(C)c(C(=O)NCc2ccc(C(C)(C)C)cc2)c1Cl [TEBUFENPYRAD]
Bombus terrestris [31]
  Activity: Active
Bombus terrestris [32]
  Activity: inactive
Bombus terrestris [33]
  Activity: 50%
Bombus terrestris [34]
  mortality at 100 µg/mL: 90%
Bombus terrestris [1]
  Activity: inactive
Bombus terrestris [7]
  mortality at 10 µg/mL: < 25%
Bombus terrestris [2]
  mortality at 200 µg/mL: < 25%
Bombus terrestris [8]
  Activity: inactive
Bombus terrestris [9]
  mortality at 10 µg/mL: 50%
Bombus terrestris [3]
  mortality at 200 µg/mL: 90%
Bombus terrestris [10]
  Activity: inactive
Bombus terrestris [35]
  Activity: 50%
Bombus terrestris [4]
  mortality at 200 µg/mL: 50%
Bombus terrestris [36]
  Activity: Active
Bombus terrestris [5]
  Activity: 50%
Bombus terrestris [37]
  mortality at 100 µg/mL: < 25%
Bombus terrestris [38]
  Activity: Active
Bombus terrestris [39]
  mortality at 100 µg/mL: 50%
